Results as given in patent US11453703B2, “Heterotandem bicyclic peptide complexes” (BicycleTX Limited, priority 2018, dated 2022).

What was measured:
[1] = system: human PBMC co-cultured with 4T1-D02 (Nectin4+); assay: Human PBMC-4T1 co-culture (cytokine release) assay; assay type: cell-based; settings: anti-CD3 stimulated PBMC, 48 hours
Description: Mouse mammary gland tumor cell line 4T1-1 (4T1-Parental) and murine Nectin-4 overexpressing 4T1 (4T1-D02) were cultured in RPMI1640 supplemented with 10% heat-inactivated Fetal Bovine Serum, 100 I.U/ml Penicillin and 100 I.U/Streptomycin, 20 mM HEPES, 1× Non-Essential Amino Acids, and 2 mM L-Glutamine (RPMI working medium). Frozen PBMCs from healthy human donors were thawed and washed one time in room temperature PBS, and then resuspended in RPMI working medium. For tumor cell and PBMC co-culture, 10000 PBMCs and 2000 tumor cells (5:1) were mixed and plated in each well of a 384 well plate. For stimulating human PBMCs, 125 ng/ml of soluble anti-CD3 mAb (clone OKT3) was added to the culture on day 0. Test, control compounds or vehicle controls were added to respective wells and brought the final volume per well to 100u1. Plates were incubated in a 37° C. cell culture incubator with 5% CO2 for up to three days. Supernatants were collected 48 hours after stimulation, and human IL-2 and IFFγ were detected using HTRF assays. Raw data were analyzed using Excel or Prism software to generate standard curves to interpolate protein concentrations. Data represents one study with three different donor PBMC tested in experimental duplicates.

CD137 [2] = biological target: T1, CD137 (Homo sapiens, UniProt Q07011); assay: CD137 reporter assay, co-culture with Nectin-4 tumour cells; assay type: cell-based; set-up: host or cells: Jurkat reporter cells;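 also: jurkat reporter cells co-cultured with tumour cells and test article for 6 h, luminescence signal relative to Jurkat plus tumour cells lacking test article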
T1 sequence (Q07011 24-255): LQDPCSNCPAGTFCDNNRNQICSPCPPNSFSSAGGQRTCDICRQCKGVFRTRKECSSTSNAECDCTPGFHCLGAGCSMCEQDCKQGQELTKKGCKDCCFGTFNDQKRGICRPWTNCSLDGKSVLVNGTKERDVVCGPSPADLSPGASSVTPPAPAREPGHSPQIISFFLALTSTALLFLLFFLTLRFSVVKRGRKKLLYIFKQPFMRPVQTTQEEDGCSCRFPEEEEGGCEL

CD137 [3] = biological target: T1, CD137; assay: CD137 reporter assay, co-culture with PD-L1 expressing cell line RKO; assay type: cell-based; set-up: host or cells: Jurkat reporter cells; settings: tumour target PD-L1, co-culture with RKO, 6 h; read-out: Fold Induction over Background
Description: (§1) Culture medium referred to as R1 media is prepared by adding 1% FBS to RPMI-1640 (component of Promega kit CS196005). Serial dilutions of test articles in R1 are prepared in a sterile 96 well-plate. Use 25 μl per well of test articles or R1 (as a background control) to designated wells in white cell culture plate. Tumour cells* are harvested and resuspended at a concentration of 400,000 cells/mL in R1 media. Twenty five (25) μL/well tumour cells are used in white cell culture plate. Jurkat cells (Promega kit CS196005, 0.5 mL) are thawed in the water bath and then added to 5 ml pre-warmed R1 medium. Twenty five (25) μL/well Jurkat cells are used in white cell culture plate. Incubate the cells and test articles for 6h at 37° C., 5% CO2. At the end of 6 h, add 75 μl/well Bio-Glo™ (Promega) and incubate for 10 min before reading luminescence in a plate reader (Clariostar, BMG). The fold change relative to cells (Jurkat cells+Cell line used in co-culture) is calculated and plotted in GraphPad Prism as log(agonist) vs response to determine EC50 (nM) and Fold Induction over background (Max)

CD137 [4] = biological target: T1, CD137; assay: CD137 Biacore (SPR) binding assay; set-up: purchased R&D systems; settings: biotinylated human CD137, 25° C.
Description: Biacore experiments were performed to determine ka (M^−1s^−1), kd (s^−1), KD (nM) values of heterotandem peptides binding to human CD137 protein. […] The protein was desalted to remove uncoupled biotin using spin columns into PBS.
For analysis of peptide binding, a Biacore T200 or a Biacore 3000 instrument was used with a XanTec CMD500D chip. Streptavidin was immobilized on the chip using standard amine-coupling chemistry at 25° C. with HBS-N (10 mM HEPES, 0.15 M NaCl, pH 7.4) as the running buffer. Briefly, the carboxymethyl dextran surface was activated with a 7 min injection of a 1:1 ratio of 0.4 M 1-ethyl-3-(3-dimethylaminopropyl) carbodiimide hydrochloride (EDC)/0.1 M N-hydroxy succinimide (NHS) at a flow rate of 10 μl/min. For capture of streptavidin, the protein was diluted to 0.2 mg/ml in 10 mM sodium acetate (pH 4.5) and captured by injecting 120 μl of onto the activated chip surface. Residual activated groups were blocked with a 7 min injection of 1 M ethanolamine (pH 8.5) and biotinylated CD137 captured to a level of 270-1500 RU. Buffer was changed to PBS/0.05% Tween 20 and a dilution series of the peptides was prepared in this buffer with a final DMSO concentration of 0.5%. The top peptide concentration was 500 nM with 6 further 2-fold or 3-fold dilutions. The SPR analysis was run at 25° C. at a flow rate of 90 μl/min with 60 seconds association and 900 seconds dissociation. After each cycle a regeneration step (10 μl of 10 mM glycine pH 2) was employed. Data were corrected for DMSO excluded volume effects as needed. All data were double-referenced for blank injections and reference surface using standard processing procedures and data processing and kinetic fitting were performed using Scrubber software, version 2.0c (BioLogic Software). Data were fitted using simple 1:1 binding model allowing for mass transport effects where appropriate.

CD137 [5] = biological target: T1, CD137; assay: CD137 reporter assay, co-culture with EphA2 tumour cells; assay type: cell-based; set-up: host or cells: Jurkat reporter cells; settings: tumour target EphA2, co-culture with PC3, at 100 nM; read-out: Fold Induction over Background at 100 nM
Description: as §1

## CCCC[C@@H]1NC(=O)[C@H](Cc2ccc(O)cc2)NC(=O)[C@@H]2CCCN2C(=O)[C@H](CC(=O)O)NC(=O)[C@H](C)NC(=O)[C@H](Cc2ccccc2)NC(=O)[C@@H]2CSCCC(=O)N3CN(CN(C3)C(=O)CCSC[C@@H](C(=O)N[C@@H](C)C(N)=O)NC1=O)C(=O)CCSC[C@H](NC(C)=O)C(=O)N[C@@H](CC(C)(C)C)C(=O)N1CCC[C@H]1C(=O)N[C@@H](CCCCNC(=O)CCc1cn(CCOCCOCCOCCOCCOCCC(=O)N[C@H]3CSCCC(=O)N4CN5CN(C4)C(=O)CCSC[C@H](NC(=O)[C@@H](CC(=O)O)NC(=O)[C@H](Cc4cccc6ccccc46)NC(=O)[C@@H]4CCCN4C3=O)C(=O)N[C@@H](CCSC)C(=O)N[C@@H](CCCCNC(=N)N)C(=O)N[C@@H](CC(=O)O)C(=O)N[C@@H](Cc3c[nH]c4ccccc34)C(=O)N[C@@H](CO)C(=O)N[C@@H]([C@@H](C)O)C(=O)N3CCC[C@H]3C(=O)N3C[C@H](O)C[C@H]3C(=O)N[C@@H](Cc3c[nH]c4ccccc34)C(=O)N[C@H](C(N)=O)CSCCC5=O)nn1)C(=O)N[C@H](C)C(=O)N1CCC[C@H]1C(=O)N[C@@H](Cc1ccc(O)cc1)C(=O)N2 [BCY10571]
[1]; IFN-γ secretion
  EC50: 0.44 nM
[1]
  max IFN-y: 18349 pg/mL
CD137 [2]
  EC50: 3.5 nM
CD137 [2]; tumour target Nectin4, co-culture with H1376, 6 h
  Fold Induction over Background: 60 fold

## CCCC[C@@H]1NC(=O)[C@H](Cc2ccc(O)cc2)NC(=O)[C@@H]2CCCN2C(=O)[C@H](CC(=O)O)NC(=O)[C@H](C)NC(=O)[C@H](Cc2ccccc2)NC(=O)[C@@H]2CSCCC(=O)N3CN(CN(C3)C(=O)CCSC[C@@H](C(=O)N[C@@H](CNC(=O)CCOCCOCCOCCOCCOCCOCCOCCOCCOCCOCCOCCOCCn3cc(CCC(=O)NCCCC[C@@H]4NC(=O)[C@H](CCC(N)=O)NC(=O)[C@@H]5CSCCC(=O)N6CN(CN(C6)C(=O)CCSC[C@@H](C(=O)N6CCC[C@H]6C(=O)N[C@@H](CO)C(=O)N[C@@H](Cc6c[nH]cn6)C(N)=O)NC(=O)[C@H](CC(C)C)NC(=O)[C@H](Cc6c[nH]cn6)NC(=O)[C@H](CC(C)C)NC4=O)C(=O)CCSC[C@H](NC(=O)[C@H](CCCCN)NC(=O)[C@H](CC(=O)O)NC(=O)[C@H](CO)NC(C)=O)C(=O)N[C@@H](CO)C(=O)N[C@@H](C)C(=O)NCC(=O)N[C@@H](Cc4c[nH]c6ccccc46)C(=O)N[C@@H](CC(C)C)C(=O)N[C@@H]([C@@H](C)O)C(=O)N[C@@H](CCSC)C(=O)N5)nn3)C(N)=O)NC1=O)C(=O)CCSC[C@H](NC(C)=O)C(=O)N[C@@H](CC(C)(C)C)C(=O)N1CCC[C@H]1C(=O)N[C@@H](CCC(=O)O)C(=O)N[C@H](C)C(=O)N1CCC[C@H]1C(=O)N[C@@H](Cc1ccc(O)cc1)C(=O)N2 [BCY11019]
CD137 [3]
  fold induction: 6

## CCCC[C@@H]1NC(=O)[C@H](Cc2ccc(O)cc2)NC(=O)[C@@H]2CCCN2C(=O)[C@H](CC(=O)O)NC(=O)[C@H](C)NC(=O)[C@H](Cc2ccccc2)NC(=O)[C@@H]2CSCCC(=O)N3CN(CN(C3)C(=O)CCSC[C@@H](C(=O)N[C@@H](CNC(=O)CCOCCOCCOCCOCCOCCn3cc(CCC(=O)NCCCC[C@@H]4NC(=O)[C@H](CCC(N)=O)NC(=O)[C@@H]5CSCCC(=O)N6CN(CN(C6)C(=O)CCSC[C@@H](C(=O)N6CCC[C@H]6C(=O)N[C@@H](CO)C(=O)N[C@@H](Cc6c[nH]cn6)C(N)=O)NC(=O)[C@H](CC(C)C)NC(=O)[C@H](Cc6c[nH]cn6)NC(=O)[C@H](CC(C)C)NC4=O)C(=O)CCSC[C@H](NC(=O)[C@H](CCCCN)NC(=O)[C@H](CC(=O)O)NC(=O)[C@H](CO)NC(C)=O)C(=O)N[C@@H](CO)C(=O)N[C@@H](C)C(=O)NCC(=O)N[C@@H](Cc4c[nH]c6ccccc46)C(=O)N[C@@H](CC(C)C)C(=O)N[C@@H]([C@@H](C)O)C(=O)N[C@@H](CCSC)C(=O)N5)nn3)C(N)=O)NC1=O)C(=O)CCSC[C@H](NC(C)=O)C(=O)N[C@@H](CC(C)(C)C)C(=O)N1CCC[C@H]1C(=O)N[C@@H](CCC(=O)O)C(=O)N[C@H](C)C(=O)N1CCC[C@H]1C(=O)N[C@@H](Cc1ccc(O)cc1)C(=O)N2 [BCY11381]
CD137 [3]
  fold induction: 7

## CCCC[C@@H]1NC(=O)[C@H](Cc2ccc(O)cc2)NC(=O)[C@@H]2CCCN2C(=O)[C@H](CC(=O)O)NC(=O)[C@H](C)NC(=O)[C@H](Cc2ccccc2)NC(=O)[C@@H]2CSCCC(=O)N3CN(CN(C3)C(=O)CCSC[C@@H](C(=O)N[C@@H](C)C(N)=O)NC1=O)C(=O)CCSC[C@H](NC(C)=O)C(=O)N[C@@H](CC(C)(C)C)C(=O)N1CCC[C@H]1C(=O)N[C@@H](CCCCNC(=O)CCOCCOCCOCCOCCOCCn1cc(CCC(=O)NCCCC[C@@H]3NC(=O)[C@H](CCC(N)=O)NC(=O)[C@@H]4CSCCC(=O)N5CN(CN(C5)C(=O)CCSC[C@@H](C(=O)N5CCC[C@H]5C(=O)N[C@@H](CO)C(=O)N[C@@H](Cc5c[nH]cn5)C(N)=O)NC(=O)[C@H](CC(C)C)NC(=O)[C@H](Cc5c[nH]cn5)NC(=O)[C@H](CC(C)C)NC3=O)C(=O)CCSC[C@H](NC(=O)[C@H](CCCCN)NC(=O)[C@H](CC(=O)O)NC(=O)[C@H](CO)NC(C)=O)C(=O)N[C@@H](CO)C(=O)N[C@@H](C)C(=O)NCC(=O)N[C@@H](Cc3c[nH]c5ccccc35)C(=O)N[C@@H](CC(C)C)C(=O)N[C@@H]([C@@H](C)O)C(=O)N[C@@H](CCSC)C(=O)N4)nn1)C(=O)N[C@H](C)C(=O)N1CCC[C@H]1C(=O)N[C@@H](Cc1ccc(O)cc1)C(=O)N2 [BCY11379]
CD137 [3]
  fold induction: 6

## CCCC[C@@H]1NC(=O)[C@H](Cc2ccc(O)cc2)NC(=O)[C@@H]2CCCN2C(=O)[C@H](CC(=O)O)NC(=O)[C@@H](C)NC(=O)[C@H](Cc2ccccc2)NC(=O)[C@@H]2CSCCC(=O)N3CN(CN(C3)C(=O)CCSC[C@@H](C(=O)N[C@@H](CNC(=O)CCOCCOCCOCCOCCOCCOCCOCCOCCOCCOCCOCCOCCn3cc(CCC(=O)NCCC(=O)N(C)CC(=O)N(C)CC(=O)N(C)CC(=O)N(C)CC(=O)N(C)CC(=O)N(C)CC(=O)N(C)CC(=O)N(C)CC(=O)N(C)CC(=O)N(C)CC(=O)N[C@@H](C)C(=O)N[C@@H](CCCCNC(=N)N)C(=O)N[C@@H](CC(=O)O)C(=O)N[C@H]4CSCCC(=O)N5CN6CN(C5)C(=O)CCSC[C@H](NC(=O)[C@H](CC(C)C)NC(=O)[C@@H]5CCCN5C(=O)[C@H](CC(N)=O)NC(=O)[C@H](C(C)C)NC(=O)[C@H](CC(C)C)NC(=O)[C@@H]5C[C@@H](O)CN5C4=O)C(=O)N[C@@H](CC(C)C)C(=O)N[C@@H](Cc4c[nH]cn4)C(=O)N4CCC[C@H]4C(=O)N[C@H](CC(=O)O)C(=O)N[C@@H](Cc4c[nH]c5ccccc45)C(=O)N[C@@H](CCCCNC(=N)N)C(=O)N[C@H](C(N)=O)CSCCC6=O)nn3)C(N)=O)NC1=O)C(=O)CCSC[C@H](NC(=O)[C@H](C)NC(C)=O)C(=O)N[C@@H]([C@@H](C)CC)C(=O)N[C@@H](CCC(=O)O)C(=O)N[C@@H](CCC(=O)O)C(=O)NCC(=O)N[C@@H](CCC(N)=O)C(=O)N[C@@H](Cc1ccc(O)cc1)C(=O)N2 [BCY8942]
CD137 [4]
  Kd: 853 nM
CD137 [5]
  fold induction at 0.1 µM: < 2
